We go through 1 compound from PMC8602401 (Scientific Reports, 2021).

Read-outs that look alike come from different tables or passages of the source. *1 amine or outer side, *2 acyl side, *3 side chain or, on linkers, in order; H or OH if unused. Where a SMILES comes first, the peptide text is derived from it. Side-chain parts run from the residue outwards. [ ]: non-standard residue; d: D form. The star is where a group is joined. γGlu = O=C(O)[C@H](CCC(=O)[*:2])N[*:1]; αMeF = C[C@](N)(Cc1ccccc1)C(=O)O; αMeK = C[C@](N)(CCCCN)C(=O)O; Lauroyl = CCCCCCCCCCCC(=O)*; αMeS = C[C@](N)(CO)C(=O)O; AEEA = NCCOCCOCC(=O)O; Aib = CC(C)(N)C(=O)O

Series [1] has as its target T1, human GLP-1R (Homo sapiens, UniProt P43220).
T1 construct: expressed in transfected cells
As to the kind of experiment: cAMP accumulation assay in CHO cells stably expressing human GLP-1R. Format: cell-based. Conditions: geometric mean (SEM); for EC50: 30 min at room temperature, HTRF cAMP, n ≥ 3 independent experiments. The protocol: (§1) All reagents for cAMP assays were obtained from Sigma-Aldrich unless otherwise specified.
(§2) Cells were suspended in assay buffer and combined with serially diluted peptides at room temperature for 30 min. cAMP levels were measured using a cAMP dynamic 2 HTRF kit (Cisbio, Codolet, France), following the manufacturer’s two-step protocol, on an EnVision plate reader (PerkinElmer, Waltham, MA, USA). […] The transformed data were analyzed by four-parameter logistic fit to determine EC50 values using GraphPad Prism 6 (GraphPad Software, San Diego, CA, USA).

Series [2] concerns the target T2, GLP-1R (endogenously expressed, EndoC-βH1 cells) (Homo sapiens, UniProt P43220).
T2 construct: EndoC-βH1 human pancreatic β-cell line, which endogenously expresses GLP-1R; endogenous in cells; host or cells: EndoC-βH1 human pancreatic β-cells
As to the kind of experiment: cAMP accumulation assay in EndoC-βH1 human pancreatic β-cells. It is filed as cell-based. Conditions: geometric mean (SEM). The protocol:
as §1, §2
Background: cAMP levels reflect the balance of adenylyl cyclase and phosphodiesterase activity.

Series [3] can be described thus: Fasted-state simulated intestinal fluid/pancreatin assay. It is filed as in vitro ADME. The conditions noted are these: FaSSIF with USP pancreatin; 2 h incubation in FaSSIF/USP pancreatin, pre-warmed, agitation; analytical RP-HPLC area under the curve; read-out: peptide remaining intact after incubation in FaSSIF/pancreatin. The protocol: Fresh FaSSIF and USP Pancreatin (FaSSIF/p; Sigma-Aldrich) was prepared according to Galia et al[55]. and used immediately. Peptides were dissolved in pre-warmed FaSSIF before addition of pre-warmed FaSSIF/pancreatin with agitation. Samples were analyzed by analytical RP-HPLC to determine remaining intact peptide by area under the curve.

For series [4], the system named is human plasma protein. As to the kind of experiment: EScalate equilibrium shift assay, human plasma. Format: in vitro ADME. The protocol:
(§3) Binding of peptides to human plasma proteins was determined by the EScalate equilibrium shift assay (Sovicell, Leipzig, Germany), using five dilutions of plasma in phosphate buffered saline and an assumed binding protein concentration of 600 µM. Samples were incubated for 1 h at room temperature then centrifuged to remove the HSA-coated beads. Supernatant samples were analyzed using HPLC (3 µm Phenomenex Aeris Widepore XB-C18 stationary phase) coupled to an electrospray ionization quadrupole time-of-flight mass spectrometer in high resolution accurate mass mode (Agilent, Santa Clara, CA, USA). Unbound fractions were calculated from the concentration-dependent shift in binding equilibrium according to fu=1/1+P/KDPlasma , where P is the concentration of the binding protein in plasma and KDPlasma is the dissociation constant of the compound from plasma proteins in solution.

Series [5] is described as follows: EScalate equilibrium shift assay, dog plasma. It is filed as in vitro ADME. Conditions: dog; EScalate equilibrium shift, five dilutions of plasma in PBS, 1 h at room temperature, HPLC-QTOF MS; read-out: Fraction unbound peptide (%), dog.
The subject of series [6] is dog plasma protein. As to the kind of experiment: EScalate equilibrium shift assay, dog plasma. Format: in vitro ADME. Conditions: EScalate equilibrium shift assay.
Series [7] is described as follows: EScalate equilibrium shift assay, monkey plasma. It is filed as in vitro ADME. Conditions: monkey; EScalate equilibrium shift, five dilutions of plasma in PBS, 1 h at room temperature, HPLC-QTOF MS; read-out: Fraction unbound peptide (%), monkey. The protocol: [The procedure below names another species; the source lists this species under the same test.] as §3
In series [8] the test system is monkey plasma protein. As to the kind of experiment: EScalate equilibrium shift assay, monkey plasma. Conditions: EScalate equilibrium shift assay. Format: in vitro ADME. On the procedure:
[The procedure below names another species; the source lists this species under the same test.] as §3

In series [9] the test system is C57Bl/6 J mice. The series is described as follows: Acute food intake in C57Bl/6J mice. It is filed as in vivo, mouse. Conditions: versus placebo. The protocol: Male C57Bl/6 J mice 8–10 weeks of age (Jackson Laboratories, Bar Harbor, ME, USA) were single-housed in the BioDAQ (Research Diets, New Brunswick, NJ, USA) food monitoring system with ad libitum access to standard chow and water. Mice were randomized into groups of 6–9 per group on baseline 24-h food intake. On the first study day, mice were fasted for 6 h and then received a single subcutaneous dose of test peptide or placebo (50 mM Tris–HCl, 150 mM mannitol, 0.02% polysorbate 80; pH 8.0). Food intake was monitored over the next 48 h.

The subject of series [10] is db/db mice. As to the kind of experiment: Dose-response study in diabetic db/db mouse model. Format: in vivo. The conditions noted are these: once-daily subcutaneous for 28 days, n = 9 per group. On the procedure: Male 7-week-old db/db mice (Charles River, Bristol, UK) were group-housed with ad libitum access to standard chow and water. Mice were randomized to groups of nine mice per group on baseline body weight, HbA1C and 4-h fasting glucose (assessed in tail bleed samples using a Cobas c-111 analyzer [Roche Diagnostics, Indianapolis, IN, USA] and Nova StatStrip Xpress glucometer [DSI, St. Paul, MN, USA]). Insulin was measured in plasma from tail bleeds using a Meso Scale kit. Over 28 days, mice received daily subcutaneous doses of test peptides or placebo (50 mM Tris–HCl, 150 mM mannitol, 0.02% polysorbate 80; pH 8.0).

Series [11] in a line: Bioavailability after intraduodenal administration with permeation enhancers in rats. Format: in vivo, rat. The protocol:
Male Sprague Dawley rats (Charles River, Shrewsbury, MA, USA) weighing 250–275 g were housed with ad libitum access to standard chow and water. Test peptides were administered via either an intravenous or a duodenal catheter (4 rats per group) after overnight fasting, and food was returned following 4 h blood collection. Blood was collected via a jugular vein catheter at − 5, 15 and 30 min and 1, 2, 4, 8 and 24 h after intravenous dosing, or for intraduodenal groups at 15 min predose and 0.5, 1, 2, 4, 8, 24 and 48 h postdose. Blood was collected in K2EDTA tubes and kept on wet ice prior to 10 min centrifugation (3000 × g) at 5 °C ± 3 °C. Plasma samples were stored at − 70 °C until analysis.
Fifty or seventy μL aliquots of K2EDTA plasma samples were precipitated with 75% acetonitrile (Sigma-Aldrich) in water (J.T. Baker, Phillipsburg, NJ, USA) (v/v) and centrifuged at 2000 × g. The supernatant was dried under nitrogen at 60 °C, then cooled. Samples were reconstituted in 20% acetonitrile in water (v/v). […] Gradient separation was performed with water and 0.2% formic acid (Thermo Fisher Scientific, Waltham, MA, USA) as mobile phase A, and acetonitrile with 0.2% formic acid as mobile phase B. The method was qualified for the quantification range of 1–1000 ng/mL with accuracy and precision of ± 20%, except for at the lower limit of quantification when the accuracy and precision were ± 25%. Plasma concentrations were subject to noncompartmental analysis consistent with the route of administration using Phoenix WinNonlin (version 7.0, Certara, Princeton, NJ, USA).

T1 sequence (P43220 24-463): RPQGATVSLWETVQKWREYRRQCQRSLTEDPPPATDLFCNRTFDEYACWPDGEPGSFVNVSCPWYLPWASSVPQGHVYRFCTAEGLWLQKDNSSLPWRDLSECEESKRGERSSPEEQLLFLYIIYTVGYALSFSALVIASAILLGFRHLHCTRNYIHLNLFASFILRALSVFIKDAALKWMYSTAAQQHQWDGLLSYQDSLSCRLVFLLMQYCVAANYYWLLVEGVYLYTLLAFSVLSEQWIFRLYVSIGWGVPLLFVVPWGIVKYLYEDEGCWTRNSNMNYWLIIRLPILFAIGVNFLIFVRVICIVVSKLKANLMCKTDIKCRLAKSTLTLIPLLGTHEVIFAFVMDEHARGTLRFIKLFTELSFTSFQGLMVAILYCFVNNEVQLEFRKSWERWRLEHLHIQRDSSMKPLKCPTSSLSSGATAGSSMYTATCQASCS
T2 sequence (P43220 24-463): as above

As a reminder, the EC50 is the concentration that produces a half-maximal response. By fraction unbound is commonly meant the share of the substance not bound to proteins or other matrix. Take `CCCCCCCCCCCC(=O)N[C@@H](CCC(=O)NCCOCCOCC(=O)NCCOCCOCC(=O)NCCCC[C@H](NC(=O)[C@H](C)NC(=O)[C@@H](NC(=O)[C@](C)(Cc1ccccc1)NC(=O)[C@H](CCC(=O)O)NC(=O)[C@](C)(CCCCN)NC(=O)[C@H](C)NC(=O)[C@H](C)NC(=O)[C@H](CCC(=O)O)NC(=O)CNC(=O)[C@H](CCC(=O)O)NC(=O)[C@H](CC(C)C)NC(=O)[C@H](CCCCNC(=O)COCCOCCNC(=O)COCCOCCNC(=O)CC[C@H](NC(=O)CCCCCCCCCCC)C(=O)O)NC(=O)[C@H](CO)NC(=O)[C@](C)(CO)NC(=O)[C@@H](NC(=O)[C@H](CC(=O)O)NC(=O)[C@H](CO)NC(=O)[C@@H](NC(=O)[C@](C)(Cc1ccccc1)NC(=O)[C@H](CO)NC(=O)CNC(=O)[C@H](CCC(=O)O)NC(=O)C(C)(C)NC(=O)[C@@H](N)Cc1c[nH]cn1)[C@@H](C)O)C(C)C)[C@@H](C)CC)C(=O)N[C@H](C(=O)N[C@H](C(=O)N[C@@H](CCC(=O)O)C(=O)NCC(=O)NCC(N)=O)C(C)C)C(C)C)C(=O)O` [MEDI7219] (H-H[Aib]EGS[αMeF]TSDV[αMeS]SK([AEEA-AEEA-γGlu-Lauroyl])LEGEAA[αMeK]E[αMeF]IAK([AEEA-AEEA-γGlu-Lauroyl])VVEGG-NH2): the “CHO-hGLP-1R cAMP 0.1% BSA Effect at max. concentration” value in series [1] (0.1% BSA, % activation, 80 nM native GLP-1 defines maximum effect) is given as 101.7 (0.5) %. The EC50 was found to be 0.398 nM in series [1] (4.4% HSA, read-out: CHO-hGLP-1R cAMP 4.4% HSA EC50); 0.0034 nM in [1] (CHO-hGLP-1R cAMP 0.1% BSA EC50, 0.1% BSA); 1.36 nM in [2] (0.1% BSA, 30 min at room temperature, HTRF cAMP, n ≥ 3 independent experiments). In addition, the “CHO-hGLP-1R cAMP 4.4% HSA Effect at max. concentration” value in [1] (4.4% HSA, % activation, 80 nM native GLP-1 defines maximum effect) is recorded as 94.3 (1.8) %. The “Human EndoC-βH1 cAMP 0.1% BSA Effect at max. concentration” value in series [2] (% activation, 80 nM native GLP-1 defines maximum effect) was 97.5 (7.1) %. The remaining at 2 h in [3] was greater than 60%. In addition, the “peptide bound to plasma proteins, human” value in [4] (EScalate equilibrium shift assay) is “over 97%”. For the same compound, in series [4] (EScalate equilibrium shift, HSA-coated beads, five dilutions of plasma in PBS, 1 h at room temperature, HPLC-QTOF MS), the “Fraction unbound peptide (%), human” value amounted to 1.75%. The values for the fraction unbound at 1 h in [5] and in series [7] were 0.0176 and 0.025, respectively. For the same compound, the “peptide bound to plasma proteins, dog” value in series [6] was “over 97%”. Further, in series [8], the “peptide bound to plasma proteins, monkey” value is reported as “over 97%”. For the same compound, the “24-hour food intake, decrease (↓) in Fig. 3a” value in series [9] (subcutaneous 0.3 nmol/kg) turned out to be 12.6%; in series [9] (subcutaneous 1 nmol/kg) it was 18.0%; in [9] (subcutaneous 3 nmol/kg) it was 39.4%. Besides, the HbA1C levels result in series [10] (P < 0.001 versus placebo for doses 1–30 nmol/kg) was “dose-dependently reduced HbA1C levels”. Besides, the “blood glucose levels over 28 days” value in series [10] (significantly lower than placebo at 3–30 nmol/kg (P < 0.001)) is “dose-dependently reduced glucose levels”. Besides, the “fold higher mean bioavailability than semaglutide” value in series [11] (intraduodenal with permeation enhancers) worked out at 13 fold. In addition, the “mean bioavailability (%F)” value in series [11] (single intraduodenal administration with permeation enhancers (NaCDC and PG), n = 4 per group) is 1.01%.
